Experimental data: patent publication US7078057B2, “Process for producing nanometer particles by fluid bed spray-drying” (priority 1999, dated 2006)

Experiment: Particle size by laser diffraction using photo correlation spectroscopy (Nicomp C370)
Type: physicochemical
Details: ganaxolone particles in spray-dried mixture with lactose (Example I)
Procedure: For purposes of the present invention, particle size in the mixtures is determined by a laser diffraction technique using photo correlation spectroscopy (Nicomp C370). The results are reported in terms of volume-weighted mean diameter. Volume-weighted mean diameter is defined as follows: (Σnd^4)/(Σnd^3) where n=the number of particles in a size interval characterized by a diameter “d”. Remington's Pharmaceutical Sciences, 18th edition, Mack Publishing Company, Easton, Pa. (1990).
Approximately 100 g of ganaxolone was dissolved in 5 kg of ethanol with slight warming to 30° C. The solution was sprayed into 1 kg of spray-dried lactose NF (Fast Flo #316) in a Vector FL-M-1 fluid bed system equipped with a 6″ Wurster column. The spray rate was 34–41 mL/min using one gun. The static inlet pressure was 2.5–8 bar (250–800 kPa) affording an air flow of 25–45 cfm. The inlet temperature was 85–90° C. and the product temperature was 27–48° C. The resulting ganaxolone powder mixture was free-flowing and contained 63 mg ganaxolone per g of powder. The ganaxolone particle size in the mixture was determined by a laser diffraction technique using photo correlation spectroscopy (Nicomp C370).

## CC(=O)[C@H]1CC[C@H]2[C@@H]3CC[C@H]4C[C@](C)(O)CC[C@]4(C)[C@H]3CC[C@]12C [ganaxolone, 3α-hydroxy-3β-methyl-5α-pregnan-20-one]
  volume-weighted mean diameter: 660 nm
